From PubChem BioAssay (NCI)
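The concentration for 50% growth inhibition is given as GI50. TGI: total growth inhibition.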

Columns and labels:
Assay in all cases: growth of human tumour cells (NCI), 384-well format
T-47D breast = system: T-47D breast
SF-295 CNS = system: SF-295 CNS
HCT-116 colon = system: HCT-116 colon
NCI-H23 lung = system: NCI-H23 lung
HL-60(TB) leukemia = system: HL-60(TB) leukemia
RXF 393 renal = system: RXF 393 renal
OVCAR-5 ovarian = system: OVCAR-5 ovarian
HOP-62 NSCLC = system: HOP-62 NSCLC
OVCAR-8 ovarian = system: OVCAR-8 ovarian
MALME-3M melanoma = system: MALME-3M melanoma
MCF7 breast = system: MCF7 breast
UACC-62 melanoma = system: UACC-62 melanoma
HCC-2998 colon = system: HCC-2998 colon
IGROV1 ovarian = system: IGROV1 ovarian
SN12C renal = system: SN12C renal
HS 578T breast = system: HS 578T breast
SNB-19 CNS = system: SNB-19 CNS
RPMI-8226 leukemia = system: RPMI-8226 leukemia
KM12 colon = system: KM12 colon
EKVX NSCLC = system: EKVX NSCLC
U251 glioblastoma = system: U251 glioblastoma
SNB-75 CNS = system: SNB-75 CNS
NCI-H522 lung = system: NCI-H522 lung
MDA-MB-231 breast = system: MDA-MB-231 breast
OVCAR-4 ovarian = system: OVCAR-4 ovarian
NCI-H322M lung = system: NCI-H322M lung
TK-10 renal = system: TK-10 renal
LOX IMVI melanoma = system: LOX IMVI melanoma
MDA-MB-435 melanoma = system: MDA-MB-435 melanoma
SR leukemia = system: SR leukemia
NCI-H226 lung = system: NCI-H226 lung
SK-MEL-5 melanoma = system: SK-MEL-5 melanoma
MOLT-4 leukemia = system: MOLT-4 leukemia
SF-539 CNS = system: SF-539 CNS
NCI/ADR-RES ovarian = system: NCI/ADR-RES ovarian
M14 melanoma = system: M14 melanoma
A549 NSCLC = system: A549 NSCLC
MDA-MB-468 breast = system: MDA-MB-468 breast
NCI-H460 NSCLC = system: NCI-H460 NSCLC
HCT-15 colon = system: HCT-15 colon
HOP-92 NSCLC = system: HOP-92 NSCLC
A498 renal = system: A498 renal
SF-268 CNS = system: SF-268 CNS
ACHN renal = system: ACHN renal
HT29 colon = system: HT29 colon
UACC-257 melanoma = system: UACC-257 melanoma
DU-145 prostate = system: DU-145 prostate
CAKI-1 renal = system: CAKI-1 renal
COLO 205 colon = system: COLO 205 colon
PC-3 prostate = system: PC-3 prostate
OVCAR-3 ovarian = system: OVCAR-3 ovarian
SK-MEL-28 melanoma = system: SK-MEL-28 melanoma
BT-549 breast = system: BT-549 breast

Question: What does the source list for Cn1cc(-c2[nH]c3cc(NC(=O)[C@H](N)C4CCCCC4)cc4c3c2C=NNC4=O)cn1?
Answer: GI50 (T-47D breast): 12.2 µM; TGI (T-47D breast): 24.7 µM; GI50 (SF-295 CNS): 339 nM; TGI (SF-295 CNS): 2300 nM; GI50 (HCT-116 colon): 427 nM; TGI (HCT-116 colon): 6.28 µM; GI50 (NCI-H23 lung): 276 nM; TGI (NCI-H23 lung): 1740 nM; GI50 (HL-60(TB) leukemia): 204 nM; TGI (HL-60(TB) leukemia): 353 nM; GI50 (RXF 393 renal): 211 nM; TGI (RXF 393 renal): 689 nM; GI50 (OVCAR-5 ovarian): 326 nM; TGI (OVCAR-5 ovarian): 953 nM; GI50 (HOP-62 NSCLC): 203 nM; TGI (HOP-62 NSCLC): 483 nM; GI50 (OVCAR-8 ovarian): 153 nM; TGI (OVCAR-8 ovarian): 359 nM; GI50 (MALME-3M melanoma): 781 nM; TGI (MALME-3M melanoma): 17.4 µM; GI50 (MCF7 breast): 176 nM; TGI (MCF7 breast): 12.7 µM; GI50 (UACC-62 melanoma): 486 nM; TGI (UACC-62 melanoma): 18.2 µM; GI50 (HCC-2998 colon): 42 nM; TGI (HCC-2998 colon): 227 nM; GI50 (IGROV1 ovarian): 275 nM; TGI (IGROV1 ovarian): 960 nM; GI50 (SN12C renal): 200 nM; TGI (SN12C renal): 856 nM; GI50 (HS 578T breast): 191 nM; TGI (HS 578T breast): 847 nM; GI50 (SNB-19 CNS): 299 nM; TGI (SNB-19 CNS): 1090 nM; GI50 (RPMI-8226 leukemia): 1920 nM; TGI (RPMI-8226 leukemia): 3.37 µM; GI50 (KM12 colon): 466 nM; TGI (KM12 colon): 8.76 µM; GI50 (EKVX NSCLC): 538 nM; TGI (EKVX NSCLC): 11.4 µM; GI50 (U251 glioblastoma): 320 nM; TGI (U251 glioblastoma): 1520 nM; GI50 (SNB-75 CNS): 506 nM; TGI (SNB-75 CNS): 2990 nM; GI50 (NCI-H522 lung): 219 nM; TGI (NCI-H522 lung): 627 nM; GI50 (MDA-MB-231 breast): 599 nM; TGI (MDA-MB-231 breast): 9.62 µM; GI50 (OVCAR-4 ovarian): 29.6 nM; TGI (OVCAR-4 ovarian): 93.9 nM; GI50 (NCI-H322M lung): 198 nM; TGI (NCI-H322M lung): 894 nM; GI50 (TK-10 renal): 222 nM; TGI (TK-10 renal): 515 nM; GI50 (LOX IMVI melanoma): 312 nM; TGI (LOX IMVI melanoma): 1060 nM; GI50 (MDA-MB-435 melanoma): 166 nM; TGI (MDA-MB-435 melanoma): 340 nM; TGI (SR leukemia): 27.2 nM; GI50 (NCI-H226 lung): 636 nM; TGI (NCI-H226 lung): 3.95 µM; GI50 (SK-MEL-5 melanoma): 175 nM; TGI (SK-MEL-5 melanoma): 407 nM; GI50 (MOLT-4 leukemia): 201 nM; TGI (MOLT-4 leukemia): 347 nM; GI50 (SF-539 CNS): 38.1 nM; TGI (SF-539 CNS): 156 nM; GI50 (NCI/ADR-RES ovarian): 4.97 µM; TGI (NCI/ADR-RES ovarian): 23.1 µM; GI50 (M14 melanoma): 195 nM; TGI (M14 melanoma): 402 nM; GI50 (A549 NSCLC): 4.66 µM; TGI (A549 NSCLC): 17.3 µM; GI50 (MDA-MB-468 breast): 186 nM; TGI (MDA-MB-468 breast): 426 nM; GI50 (NCI-H460 NSCLC): 3.09 µM; TGI (NCI-H460 NSCLC): 11.1 µM; GI50 (HCT-15 colon): 2720 nM; TGI (HCT-15 colon): 9.18 µM; GI50 (HOP-92 NSCLC): 111 nM; TGI (HOP-92 NSCLC): 5.43 µM; GI50 (A498 renal): 91.6 nM; TGI (A498 renal): 277 nM; GI50 (SF-268 CNS): 169 nM; TGI (SF-268 CNS): 10.9 µM; GI50 (ACHN renal): 314 nM; TGI (ACHN renal): 954 nM; GI50 (HT29 colon): 1030 nM; TGI (HT29 colon): 2580 nM; GI50 (UACC-257 melanoma): 1420 nM; TGI (UACC-257 melanoma): 6.26 µM; GI50 (DU-145 prostate): 359 nM; TGI (DU-145 prostate): 12.4 µM; GI50 (CAKI-1 renal): 531 nM; TGI (CAKI-1 renal): 12.4 µM; GI50 (COLO 205 colon): 489 nM; TGI (COLO 205 colon): 1710 nM; GI50 (PC-3 prostate): 768 nM; TGI (PC-3 prostate): 13.4 µM; GI50 (OVCAR-3 ovarian): 49.6 nM; TGI (OVCAR-3 ovarian): 209 nM; GI50 (SK-MEL-28 melanoma): 761 nM; TGI (SK-MEL-28 melanoma): 16.4 µM; GI50 (BT-549 breast): 152 nM; TGI (BT-549 breast): 362 nM
